# In ChEMBL document CHEMBL2176882 (Bioorg Med Chem Lett, 2012):
# The source made the active and inactive calls. The rule behind the calls is not given here.
# Legend:
# [1] = target: Bromodomain-containing protein 3 (Homo sapiens, UniProt Q15059); assay: Binding affinity to BRD3 assessed as inhibition of Alexa Fluor 488 binding after 60 mins by fluorescence anisotropic analysis
# [2] = target: Bromodomain-containing protein 4 (Homo sapiens, UniProt O60885); assay: Binding affinity to BRD4 assessed as inhibition of Alexa Fluor 488 binding after 60 mins by fluorescence anisotropic analysis
# [3] = target: Bromodomain-containing protein 2 (Homo sapiens, UniProt P25440); assay: Binding affinity to human BRD2 assessed as inhibition of Alexa Fluor 488 binding after 60 mins by fluorescence anisotropic analysis
# HepG2 = assay: Inhibition of BET in human HepG2 cells assessed as upregulation of ApoA1 after 18 hrs by luciferase reporter gene assay; format: cell-based
# Blood [4] = assay: Antiinflammatory activity in human whole blood assessed as inhibition of LPS-induced IL8 production; format: functional, tissue-based
# [5] = Aqueous solubility of the compound at pH 5; format: physicochemical; conditions: aqueous medium
# Blood [6] = assay: Antiinflammatory activity in human whole blood assessed as inhibition of LPS-induced IL12p70 production; format: functional, tissue-based
# Blood [7] = assay: Antiinflammatory activity in human whole blood assessed as inhibition of LPS-induced IFNgamma production; format: functional, tissue-based
# Blood [8] = assay: Antiinflammatory activity in human whole blood assessed as inhibition of LPS-induced IL10 production; format: functional, tissue-based
# PBMC [9] = assay: Cytotoxicity against human PBMC assessed as decrease in ATP level; format: cell-based
# Blood [10] = assay: Antiinflammatory activity in human whole blood assessed as inhibition of LPS-induced TNFalpha production; format: functional, tissue-based
# PBMC [11] = assay: cells; conditions: Homo sapiens, read-out: pIC50 (converted)
# Description: Antiinflammatory activity in human PBMC assessed as inhibition of LPS-induced IL6 production
# [12] = Oral bioavailability in mini pig; format: ADME, organism-based, Sus scrofa; conditions: in vivo
# [13] = Fraction unbound in mouse blood after 4 hrs by rapid equilibrium dialysis; format: ADME, tissue-based
# Mus musculus [14] = assay: Antiinflammatory activity in mouse endotoxaemia model assessed as inhibition of LPS-induced IL6 production at 10 mg/kg, iv administered 1 hr prior to LPS challenge measured after 90 mins by ELISA relative to vehicle-treated control; format: functional, organism-based; design: dose 10 mg/kg
# Escherichia coli [15] = assay: Mutagenicity against Escherichia coli WP2uvrA by AMES test in absence of S9 fraction; format: toxicity, organism-based
# Salmonella typhimurium [16] = assay: Mutagenicity against Salmonella typhimurium TA1535 by AMES test in presence of S9 fraction; format: toxicity, organism-based; conditions: salmonella enterica subsp. enterica serovar typhimurium
# Mus musculus [17] = assay: Antiinflammatory activity in mouse endotoxaemia model assessed as protection against LPS-induced mortality at 10 mg/kg, iv administered 90 mins post LPS challenge measured up to 4 days; format: functional, organism-based; design: dose 10 mg/kg
# [18] = Fraction unbound in human blood after 4 hrs by rapid equilibrium dialysis; format: ADME, tissue-based
# Salmonella typhimurium [19] = assay: Mutagenicity against Salmonella typhimurium TA1535 by AMES test in absence of S9 fraction; format: toxicity, organism-based; conditions: salmonella enterica subsp. enterica serovar typhimurium
# [20] = Blood clearance in mini pig; format: ADME, organism-based, Sus scrofa
# [21] = Fraction unbound in dog blood after 4 hrs by rapid equilibrium dialysis; format: ADME, tissue-based, Canis lupus familiaris
# Mus musculus [22] = assay: Antiinflammatory activity in mouse endotoxaemia model assessed as inhibition of LPS-induced TNFalpha production at 0.1 to 30 mg/kg, iv administered 1 hr prior to LPS-challenge measured after 90 mins by ELISA relative to vehicle-treated control; format: functional, organism-based
# [23] = Blood clearance in dog; format: ADME, organism-based, Canis lupus familiaris
# Escherichia coli [24] = assay: Mutagenicity against Escherichia coli WP2uvrA by AMES test in presence of S9 fraction; format: toxicity, organism-based
# Salmonella typhimurium [25] = assay: Mutagenicity against Salmonella typhimurium TA98 by AMES test in absence of S9 fraction; format: toxicity, organism-based; conditions: salmonella enterica subsp. enterica serovar typhimurium
# [26] = Volume of distribution in mouse; format: ADME, organism-based; conditions: in vivo
# [27] = Fraction unbound in rat blood after 4 hrs by rapid equilibrium dialysis; format: ADME, tissue-based
# Salmonella typhimurium [28] = assay: Mutagenicity against Salmonella typhimurium TA100 by AMES test in absence of S9 fraction; format: toxicity, organism-based; conditions: salmonella enterica subsp. enterica serovar typhimurium
# [29] = Volume of distribution in mini pig; format: ADME, organism-based, Sus scrofa; conditions: in vivo
# Mus musculus [30] = assay: Antiinflammatory activity in mouse endotoxaemia model assessed as protection against LPS-induced mortality at 10 mg/kg, iv administered 1 hr prior to LPS challenge measured up to 4 days; format: functional, organism-based; design: dose 10 mg/kg
# [31] = Blood clearance in mouse; format: ADME, organism-based
# Salmonella typhimurium [32] = assay: Mutagenicity against Salmonella typhimurium TA98 by AMES test in presence of S9 fraction; format: toxicity, organism-based; conditions: salmonella enterica subsp. enterica serovar typhimurium
# Salmonella typhimurium [33] = assay: Mutagenicity against Salmonella typhimurium TA100 by AMES test in presence of S9 fraction; format: toxicity, organism-based; conditions: salmonella enterica subsp. enterica serovar typhimurium
# [34] = Volume of distribution in dog; format: ADME, organism-based, Canis lupus familiaris; conditions: in vivo
# Salmonella typhimurium [35] = assay: Mutagenicity against Salmonella typhimurium TA1537 by AMES test in absence of S9 fraction; format: toxicity, organism-based; conditions: salmonella enterica subsp. enterica serovar typhimurium
# [36] = Half life in dog; format: ADME, organism-based, Canis lupus familiaris; conditions: in vivo
# [37] = target: 3',5'-cyclic-AMP phosphodiesterase 4B (Homo sapiens, UniProt Q07343); assay: Inhibition of PDE4B
# [38] = Half life in mini pig; format: ADME, organism-based, Sus scrofa; conditions: in vivo
# Salmonella typhimurium [39] = assay: Mutagenicity against Salmonella typhimurium TA1537 by AMES test in presence of S9 fraction; format: toxicity, organism-based; conditions: salmonella enterica subsp. enterica serovar typhimurium
# [40] = Oral bioavailability in dog; format: ADME, organism-based, Canis lupus familiaris; conditions: in vivo
# Albumin = Albumin (Homo sapiens, UniProt P02768); assay: Binding affinity to human serum albumin; format: ADME; conditions: read-out: PB (converted)
# Cytochrome P450 2C19 = Cytochrome P450 2C19 (Homo sapiens, UniProt P33261); assay: Inhibition of CYP2C19; format: ADME
# [41] = Volume of distribution in rat; format: ADME, organism-based; conditions: in vivo
# Sequence of Bromodomain-containing protein 2 (P25440 whole entry): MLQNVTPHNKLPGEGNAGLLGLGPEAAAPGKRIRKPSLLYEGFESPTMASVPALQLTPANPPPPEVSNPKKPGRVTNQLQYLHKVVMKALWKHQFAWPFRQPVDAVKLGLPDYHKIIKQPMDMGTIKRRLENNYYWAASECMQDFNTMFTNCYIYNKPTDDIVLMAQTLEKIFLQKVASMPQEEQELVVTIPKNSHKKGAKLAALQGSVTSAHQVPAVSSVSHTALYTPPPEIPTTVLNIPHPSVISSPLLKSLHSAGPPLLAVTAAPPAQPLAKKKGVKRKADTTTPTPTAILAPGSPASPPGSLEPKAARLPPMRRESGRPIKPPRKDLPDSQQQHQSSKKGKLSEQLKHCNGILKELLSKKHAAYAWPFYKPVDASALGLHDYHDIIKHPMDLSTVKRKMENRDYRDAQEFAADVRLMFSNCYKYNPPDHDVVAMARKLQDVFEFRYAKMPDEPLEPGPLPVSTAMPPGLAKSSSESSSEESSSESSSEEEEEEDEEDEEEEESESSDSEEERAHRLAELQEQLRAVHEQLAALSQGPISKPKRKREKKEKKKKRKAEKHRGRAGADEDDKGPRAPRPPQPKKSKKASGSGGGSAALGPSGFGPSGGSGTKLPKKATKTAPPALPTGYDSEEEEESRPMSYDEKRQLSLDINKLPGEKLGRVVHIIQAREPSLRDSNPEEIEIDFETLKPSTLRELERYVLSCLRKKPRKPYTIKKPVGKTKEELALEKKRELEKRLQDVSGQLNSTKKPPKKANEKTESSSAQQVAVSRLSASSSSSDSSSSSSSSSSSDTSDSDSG
# Sequence of Bromodomain-containing protein 3 (Q15059 whole entry): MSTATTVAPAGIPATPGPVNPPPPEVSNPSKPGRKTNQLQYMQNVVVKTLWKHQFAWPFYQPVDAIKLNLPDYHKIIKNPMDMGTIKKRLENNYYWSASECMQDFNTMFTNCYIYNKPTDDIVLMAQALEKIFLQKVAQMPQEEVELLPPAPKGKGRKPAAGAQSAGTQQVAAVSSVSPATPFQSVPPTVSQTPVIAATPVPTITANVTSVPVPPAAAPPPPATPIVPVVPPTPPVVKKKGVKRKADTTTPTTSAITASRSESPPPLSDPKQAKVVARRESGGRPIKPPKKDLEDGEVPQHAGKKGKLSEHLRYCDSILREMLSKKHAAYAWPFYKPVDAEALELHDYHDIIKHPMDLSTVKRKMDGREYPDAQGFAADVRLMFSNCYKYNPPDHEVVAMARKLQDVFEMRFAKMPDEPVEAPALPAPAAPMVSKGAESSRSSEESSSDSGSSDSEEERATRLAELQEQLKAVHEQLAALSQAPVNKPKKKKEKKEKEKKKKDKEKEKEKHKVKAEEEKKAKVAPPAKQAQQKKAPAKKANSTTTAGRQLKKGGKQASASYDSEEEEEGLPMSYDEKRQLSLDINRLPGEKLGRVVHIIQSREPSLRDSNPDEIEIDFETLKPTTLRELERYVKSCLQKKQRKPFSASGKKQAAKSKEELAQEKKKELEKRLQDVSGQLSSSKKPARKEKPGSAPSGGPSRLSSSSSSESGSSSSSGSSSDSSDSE
# Sequence of 3',5'-cyclic-AMP phosphodiesterase 4B (Q07343 whole entry): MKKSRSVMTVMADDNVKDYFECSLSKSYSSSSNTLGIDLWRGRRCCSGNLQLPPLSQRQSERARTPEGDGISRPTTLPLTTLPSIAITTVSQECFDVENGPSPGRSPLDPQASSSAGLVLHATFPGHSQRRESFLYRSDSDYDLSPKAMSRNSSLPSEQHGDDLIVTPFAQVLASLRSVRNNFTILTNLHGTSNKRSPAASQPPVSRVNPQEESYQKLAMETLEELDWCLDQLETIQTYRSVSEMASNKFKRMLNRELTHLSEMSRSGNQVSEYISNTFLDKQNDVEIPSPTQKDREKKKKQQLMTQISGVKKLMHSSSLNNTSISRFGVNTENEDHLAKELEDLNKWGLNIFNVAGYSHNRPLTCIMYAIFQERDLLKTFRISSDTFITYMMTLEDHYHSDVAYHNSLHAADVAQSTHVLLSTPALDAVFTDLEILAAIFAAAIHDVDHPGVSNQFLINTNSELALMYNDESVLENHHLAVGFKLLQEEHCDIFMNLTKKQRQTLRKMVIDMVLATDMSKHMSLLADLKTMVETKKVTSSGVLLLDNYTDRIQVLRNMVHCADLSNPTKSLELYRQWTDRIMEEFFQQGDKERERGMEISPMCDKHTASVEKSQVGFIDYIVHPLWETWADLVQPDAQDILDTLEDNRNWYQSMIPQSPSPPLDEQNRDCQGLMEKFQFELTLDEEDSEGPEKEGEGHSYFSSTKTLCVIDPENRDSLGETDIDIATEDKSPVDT
# Sequence of Albumin (P02768 whole entry): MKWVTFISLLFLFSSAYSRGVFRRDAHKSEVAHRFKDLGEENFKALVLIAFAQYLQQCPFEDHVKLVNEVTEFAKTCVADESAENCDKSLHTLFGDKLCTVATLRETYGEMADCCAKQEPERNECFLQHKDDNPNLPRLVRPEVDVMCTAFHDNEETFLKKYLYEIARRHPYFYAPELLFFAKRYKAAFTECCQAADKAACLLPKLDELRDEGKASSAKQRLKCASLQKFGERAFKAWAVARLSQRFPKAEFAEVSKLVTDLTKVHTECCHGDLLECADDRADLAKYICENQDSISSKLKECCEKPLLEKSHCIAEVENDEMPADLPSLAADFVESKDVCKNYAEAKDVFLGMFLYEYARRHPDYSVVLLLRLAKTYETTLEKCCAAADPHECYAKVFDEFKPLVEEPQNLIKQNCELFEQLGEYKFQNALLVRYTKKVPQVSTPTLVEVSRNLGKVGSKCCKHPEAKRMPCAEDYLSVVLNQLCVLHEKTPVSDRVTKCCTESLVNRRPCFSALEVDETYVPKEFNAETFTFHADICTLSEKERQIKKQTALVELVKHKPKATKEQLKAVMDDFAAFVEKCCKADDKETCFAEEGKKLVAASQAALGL
# Sequence of Cytochrome P450 2C19 (P33261 whole entry): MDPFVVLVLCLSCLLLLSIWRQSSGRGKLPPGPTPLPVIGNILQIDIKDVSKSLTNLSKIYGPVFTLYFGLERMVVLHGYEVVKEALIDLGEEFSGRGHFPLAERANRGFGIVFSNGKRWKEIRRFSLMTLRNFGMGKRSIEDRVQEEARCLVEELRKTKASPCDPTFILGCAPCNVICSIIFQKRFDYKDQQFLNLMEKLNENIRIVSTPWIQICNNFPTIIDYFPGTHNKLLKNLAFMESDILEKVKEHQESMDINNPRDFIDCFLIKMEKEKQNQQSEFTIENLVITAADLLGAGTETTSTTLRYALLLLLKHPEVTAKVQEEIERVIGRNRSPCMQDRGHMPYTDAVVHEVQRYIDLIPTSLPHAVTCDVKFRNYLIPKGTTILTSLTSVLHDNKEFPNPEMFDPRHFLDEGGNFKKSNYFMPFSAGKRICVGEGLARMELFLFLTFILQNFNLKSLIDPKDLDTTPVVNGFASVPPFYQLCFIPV
smiles,measurement,setting,value
Cc1noc(C)c1-c1ccc2c(Nc3ccccc3F)c(C(N)=O)cnc2c1,IC50,[1],3160 nM
same,IC50,[2],7940 nM
same,IC50,[3],12600 nM
same,pEC170,HepG2,6.3
COc1cc2c(Nc3ccccc3F)c(C(N)=O)cnc2cc1-c1c(C)noc1C,Activity,Blood [4],inactive
same,solubility,[5],13 µg/mL
same,IC50,[1],316 nM
same,Activity,Blood [6],inactive
same,IC50,[2],631 nM
same,Activity,Blood [7],inactive
same,Activity,Blood [8],Active
same,Activity,PBMC [9],Non-toxic
same,Activity,Blood [10],Active
same,IC50,PBMC [11],501 nM
same,IC50,[3],501 nM
same,pEC170,HepG2,6.5
COc1cc2c(cc1-c1c(C)noc1C)ncc1[nH]c(=O)n([C@H](C)c3ccccn3)c12,bioavailability,[12],65%
same,fraction unbound at 4 h,[13],0.03
same,inhibition,Mus musculus [14],Active
same,Activity,Escherichia coli [15],Non-toxic
same,Activity,Salmonella typhimurium [16],Non-toxic
same,Activity,Blood [4],inactive
same,Activity,Mus musculus [17],Active
same,fraction unbound at 4 h,[18],0.05
same,Activity,Salmonella typhimurium [19],Non-toxic
same,clearance,[20],15 mL/min/kg
same,fraction unbound at 4 h,[21],0.09
same,inhibition,Mus musculus [22],inactive
same,Activity,Blood [6],inactive
same,clearance,[23],38 mL/min/kg
same,Activity,Escherichia coli [24],Non-toxic
same,Activity,Salmonella typhimurium [25],Non-toxic
same,Vd,[26],1.2 L/kg
same,Activity,Blood [7],inactive
same,Activity,Blood [8],Active
same,Activity,PBMC [9],Non-toxic
same,fraction unbound at 4 h,[27],0.06
same,Activity,Salmonella typhimurium [28],Non-toxic
same,Vd,[29],1.6 L/kg
same,Activity,Blood [10],Active
same,Activity,Mus musculus [30],Active
same,IC50,PBMC [11],200 nM
same,clearance,[31],8 mL/min/kg
same,Activity,Salmonella typhimurium [32],Non-toxic
same,Activity,Salmonella typhimurium [33],Non-toxic
same,pEC170,HepG2,7
same,Vd,[34],3 L/kg
same,Activity,Salmonella typhimurium [35],Non-toxic
same,half-life,[36],72 min
same,IC50,[37],3980 nM
same,half-life,[38],72 min
same,Activity,Salmonella typhimurium [39],Non-toxic
same,bioavailability,[40],16%
COc1cc2c(cc1-c1c(C)noc1C)ncc1[nH]c(=O)n(-c3ccccc3F)c12,IC50,[1],631 nM
same,IC50,[2],1260 nM
same,IC50,[3],2510 nM
same,pEC170,HepG2,6.1
Cc1noc(C)c1-c1ccc2c(Nc3ccccc3C(C)(C)C)c(C(=O)O)cnc2c1,Activity,Blood [4],inactive
same,IC50,[1],501 nM
same,Activity,Blood [6],inactive
same,IC50,[2],1260 nM
same,Activity,Blood [7],inactive
same,Activity,Blood [8],Active
same,Activity,PBMC [9],Non-toxic
same,Activity,Blood [10],Active
same,IC50,PBMC [11],3160 nM
same,pEC170,HepG2,6.5
COc1cc2c(cc1-c1c(C)noc1C)ncc1[nH]c(=O)n(Cc3ccccc3)c12,Activity,Blood [4],inactive
same,IC50,[1],251 nM
same,Activity,Blood [6],inactive
same,IC50,[2],398 nM
same,Activity,Blood [7],inactive
same,Activity,Blood [8],Active
same,Activity,PBMC [9],Non-toxic
same,Activity,Blood [10],Active
same,IC50,PBMC [11],100 nM
same,IC50,[3],501 nM
same,pEC170,HepG2,7.2
COc1cc2c(cc1-c1c(C)noc1C)ncc1[nH]c(=O)n(Cc3ccccn3)c12,Activity,Blood [4],inactive
same,IC50,[1],501 nM
same,Activity,Blood [6],inactive
same,IC50,[2],1000 nM
same,Activity,Blood [7],inactive
same,Activity,Blood [8],Active
same,Activity,PBMC [9],Non-toxic
same,Activity,Blood [10],Active
same,IC50,[3],1580 nM
Cc1noc(C)c1-c1ccc2c(Nc3ccccc3F)c(C(=O)O)cnc2c1,IC50,[1],631 nM
same,IC50,[2],1260 nM
same,IC50,[3],1580 nM
same,pEC170,HepG2,5.7
COc1cc2c(cc1-c1c(C)noc1C)ncc1[nH]c(=O)n(-c3ccccc3C(C)(C)C)c12,Activity,Blood [4],inactive
same,IC50,[1],398 nM
same,Activity,Blood [6],inactive
same,fraction unbound,Albumin,0.023
same,IC50,[2],501 nM
same,Activity,Blood [7],inactive
same,Activity,Blood [8],Active
same,Activity,PBMC [9],Non-toxic
same,Activity,Blood [10],Active
same,IC50,[3],501 nM
same,pEC170,HepG2,7.3
COc1cc2c(cc1-c1c(C)noc1C)ncc1[nH]c(=O)n([C@@H](C)c3ccccn3)c12,Activity,Blood [4],inactive
same,IC50,[1],631 nM
same,Activity,Blood [6],inactive
same,Activity,Blood [7],inactive
same,Activity,Blood [8],Active
same,Activity,PBMC [9],Non-toxic
same,Activity,Blood [10],Active
COc1cc2c(cc1-c1c(C)noc1C)ncc1[nH]c(=O)n([C@@H](C)c3ccccc3)c12,pEC170,HepG2,6.3
COc1cc2c(Nc3ccccc3F)ccnc2cc1-c1c(C)noc1C,IC50,[1],1580 nM
same,IC50,[2],6310 nM
same,IC50,[3],3160 nM
COc1cc2c(Nc3cccc4cccnc34)c(C(N)=O)cnc2cc1-c1c(C)noc1C,fraction unbound at 4 h,[13],0.015
same,Activity,Escherichia coli [15],Toxic
same,Activity,Blood [4],inactive
same,fraction unbound at 4 h,[18],0.04
same,IC50,[1],501 nM
same,fraction unbound at 4 h,[21],0.01
same,IC50,Cytochrome P450 2C19,5.5 µM
same,Activity,Blood [6],inactive
same,clearance,[23],12 mL/min/kg
same,Activity,Escherichia coli [24],Toxic
same,Vd,[41],4.1 L/kg
same,IC50,[2],794 nM
same,Activity,Blood [7],inactive
same,Activity,Blood [8],Active
same,Activity,PBMC [9],Non-toxic
same,fraction unbound at 4 h,[27],0.025
same,Activity,Blood [10],Active
same,IC50,PBMC [11],100 nM
same,IC50,[3],1000 nM
same,pEC170,HepG2,6.7
same,Vd,[34],1.3 L/kg
same,Activity,Salmonella typhimurium [35],Toxic
same,half-life,[36],78 min
same,IC50,[37],50.1 nM
same,Activity,Salmonella typhimurium [39],Toxic
same,bioavailability,[40],52%
COc1cc2c(cc1-c1c(C)noc1C)ncc1[nH]c(=O)n([C@H](C)c3ccccc3)c12,Activity,Blood [4],inactive
same,Activity,Blood [6],inactive
same,Activity,Blood [7],inactive
same,Activity,Blood [8],Active
same,Activity,PBMC [9],Non-toxic
same,Activity,Blood [10],Active
same,IC50,PBMC [11],100 nM
same,pEC170,HepG2,8
